Assay results as given in patent US11918610B2, “Methods for diagnosis and treatment of type 1 diabetes” (priority 2018, dated 2024).
No end group written: not given here.

What was measured:
[1] = tested on: non-obese diabetic mice (NOD/ShiLtJ) colonized with E. coli VT-55; assay type: in vivo; conditions: NOD mice gavaged with E. coli VT-55; regimen of each agent as in Table 3; positive control (no therapy) 16, negative controls 24 and 26
Description: For this study non-obese diabetic mice (NOD/ShiLtJ) 8 weeks old (Jackson Laboratory, Bar Harbor, Me., USA) were housed and bred under specific pathogen-free conditions. Mice were maintained in a temperature controlled (22±2° C.) animal facility with a 12 hour light/dark cycle and were allowed free access to food and acidified drinking water. To increase the efficacy of E. coli transfer, all animals were exposed to antibiotic treatment before the transfer of E. coli. Starting at three weeks of age, recipient mice were treated with ampicillin (1 g/L) in the drinking water for the next 4 weeks. The bacterial strains used: E. coli strain VT-55—a wild-type, amyloid-producing strain. E. coli VT-55 bacteria were administered with oropharyngeal gavage to 8 week old female mice at 10^8 CFU, 2 times a week. Acceleration of T1D development was accessed by measuring blood glucose in a manner consistent with diabetes monitoring, using a FreeStyle Lite meter and test strips (Abbott). Blood glucose was evaluated weekly via a tail vein. T1D development was defined as occurring after two consecutive blood glucose measurements of at least 250 mg/dL.
TTR was expressed in E. coli VT-243. The TTR protein was precipitated from the supernatant of a 48 hour culture of E. coli VT-243 after centrifugation (12,000×g, 20 minutes 4° C.) of the lysed cells in the gradient 40-90% ammonium sulfate fraction (1.8-3.6 M). The precipitate that contained TTR was dialyzed overnight against 10 mM sodium phosphate buffer, pH 7.5, 100 mM KCl, 1 mM EDTA. The same volume of 200 mM sodium acetate buffer (pH 4.4, 100 mM KCl, 1 mM EDTA) was added to achieve a final pH of 4.5, and the mixture was then incubated for 18 hours at 37° C. Following centrifugation (45 min, 30,000×g, 4° C.), the supernatant was gel filtrated (Superdex 75) to elute phosphate buffer.
To develop nanoparticles with siRNA, we used cholesterol, distearoyl-sn-glycerol-3-phosphocholine (DSPC) and PEG2000-DMG (all Sigma). Nanoparticles were prepared by dissolving the 306013 lipidoid, cholesterol, DSPC, and PEG2000-DMG with final molar ratio of 50:38.5:10:1.5 in a 90% ethanol enriched with 10% 10 nM sodium citrate. Particles were formed following vortexing of equal volumes of siRNA solution with the lipid solution and subsequent dilution in PBS. Mice were orally gavaged with nanoparticles loaded with siRNA at a dose of 5 mg/kg.
The EcVac vaccine consisted of conjugates containing the 0-antigens of serotypes 06 of E. coli VT-55. […] The suspension for iv administration was made in TBS, (pH 7.4; 25 mmol Tris, 137 mmol NaCl, 2.8 mmol KCl).
Balb/c mice were immunized (10 μg) intraperitoneally and boosted (1 μg) subcutaneously with the E. coli amyloid isolated as previously described. Splenocytes were removed under sterile conditions, washed and hybridized to murine plasmacytoma parent cell line SP2/OAg14 using 40% polyethylene glycol and a spleen cell to plasmacytoma cell ratio of 5:1. Cells were plated in 96-well microtiter (Sarstedt) plates at 100,000 cells/per well with DMEM supplemented with 10% fetal bovine serum. Following 48h, cells were supplemented with hypoxanthine (100 PM) containing medium. After three washes with PBS-1% BSA, the presence of specific antibody binding was detected by ELISA. Serotype specific wells were cloned. Pristine-primed BALB/c mice were IP injected with 1×10^7 hybridoma cells. Ascites fluid was collected 14 days later, centrifuged (5000 g, 20 min, Eppendorf) and stored at −80° C. before use.

E. coli biofilm = assay: Release of bacterial amyloid from E. coli biofilm after prophage induction (Congo Red absorbance of supernatant); assay type: cell-based, Escherichia coli; conditions: for Congo Red absorbance of biofilm supernatant (release of bacterial amyloid): 10h following prophage induction
Description: Next, the effect of prophage induction on E. coli biofilm to amyloid release was evaluated. The amount of amyloid fibers in the biofilm supernatant was determined following prophage induction. Biofilm supernatant was collected and centrifuged at 5000 rpm (Eppendorf 5113) to sediment cells. Supernatant was filtered with […] and heated to eliminate contaminating proteins by incubating in a boiling water bath for 10 minutes, under the assumption that the aggregated β-sheet amyloid is heat resistant. To quantify the amount of aggregated amyloid, its binding to the amyloid diagnostic dye Congo Red (CR) was evaluated (Table 12). CR added to a final concentration of 10 μg/mL at pH 4.5 was tested using a BioRad UV/Vis spectrophotometer at 25° C. After 5 minutes of equilibration, the absorbance spectra were recorded from 400 to 600 nm. Each trace represents the average of 3 accumulated spectra.
Next, the inventors evaluated the effect of prophage induction on the amount of amyloid fibers released into the biofilm supernatant. Supernatant CR depletion assays were performed as follows. The amount of bacterial amyloid following prophage induction was measured in the supernatant of E. coli MG1655 biofilms. Biofilms were obtained as described above. Biofilm supernatant was taken at 4, 6, 8, and 10 h following prophage induction. To isolate aggregated amyloid fibers from the supernatant, the supernatant was centrifuged at 10,000×g, filtered through a 0.22 μm filter to separate bacterial cells, and treated with proteinase K to eliminate contaminating proteins. CR (Sigma-Aldrich) was added to a final concentration of 10 μg/ml from a filtered stock solution of 1 mg/ml (Reichhardt et al., 2015). After 5 min of equilibration, absorbance spectra were recorded from 400 to 600 nm (SmartSpec 3000, Bio-Rad). Each trace represents the average of 5 accumulated spectra. For all samples, spectra of corresponding nutrient MHB solutions with CR were used as blanks.
To quantify the amount of aggregated amyloid, its binding to the amyloid-diagnostic dye was evaluated by a Congo red (CR) assay (Reichhardt et al., 2015). A significant increase in CR absorbance was observed upon binding to supernatant 8 h following prophage induction as compared with control samples (FIG. 7). Like for other curli fibers, […] of the E. coli supernatant induced a spectral shift of the CR solution, with a maximum difference in absorbance between CR alone and CR bound to amyloid fibers at ˜541 nm (Chapman et al., 2002).

[2] = tested on: MG1655 wild-type lysogenic strain (bacteriophage λ) biofilm; assay: Prophage induction with mitomycin C in E. coli biofilm: PFU numbers (phage plaque assay); assay type: cell-based, Escherichia coli; conditions: for PFU numbers: prophage induction with 1 μg/ml mitomycin C, 48h biofilm; for PFU: Table 17, prophage induction with mitomycin C, 48-h biofilm
Description: (§1) We used 48h old E. coli biofilms formed by amyloid-producing E. coli VT-55. Bacteriophages λ (from our collection) were employed. E. coli lysogenic strains were obtained by infection of host bacteria with phage. Prophages were induced with 1 μg/ml mitomycin C (Sigma). To confirm lytic development of bacteriophage we measured an increase in the number of plaque forming units (PFU) and the reduction of bacterial colony-forming units CFU numbers, throughout the 4 h to 10 h period (Table 2). The PFU number in E. coli biofilm was determined by the production of plaques on control E. coli culture.
(§2) Next, the E. coli phage/E. coli bacterial cell ratio, which represents the “lytic potential” (FIG. 6) (Waller et al., 2014), was analyzed. E. coli strain MG1655 was used as a host for prophage induction experiments (Jensen 1993). Bacteria were subcultured from freezer stocks onto Mueller-Hinton agar plates (Oxoid) and incubated at 37° C. overnight. All subsequent liquid subcultures were derived from colonies isolated from these plates and were grown in Mueller-Hinton broth (Oxoid). Bacteriophage λ from the inventors' collection was employed. Bacteriophage suspensions were routinely stored in TM buffer (10 mM Tris-HCl, 10 mM MgSO4, pH 7.2) at 4° C. E. coli lysogenic strains were obtained by infection of E. coli MG1655 with the phage and titration of cells on Mueller-Hinton agar plates as previously described (Maniatis et al. 1989). For prophage induction, Mitomycin C (Sigma-Aldrich) was prepared in 0.1 M phosphate buffer (pH 7.2), filtered through a 0.22-μm-pore filter (Millipore Corp., Bedford, Mass.), and stored at 4° C. (Georgopoulos et al., 2002). A modified protocol according to Reyrolle et al. designed for prophage induction on 96-well plates was used (Reyrolle et al., 1982; McDonald et al., 2010). Twenty microliters of an overnight E. coli MG1655 culture, with an absorbance at 600 nm of 0.2, was dispensed in each well of a 96-well flat-bottom polystyrene tissue culture microtiter plate (Sarstedt, Numbrecht, Germany), after which 180 μl of MHB (Oxoid) was added. The plates were incubated at 37° C. for 48 h. Induction of prophages in the E. coli biofilms was provoked by the addition of mitomycin C (Sigma) to a final concentration 1 μg/ml to each well. The plates were further incubated at 37° C. and samples were taken at 4, 6, 8, and 10 h following prophage induction.
(§3) The inventors evaluated how the die-off of E. coli populations due to prophage induction could lead to amyloid release. The inventors used 48-h old E. coli biofilms with confirmed curli expression. Curli formation on 48-h colonies was visible with the naked eye on petri dishes (data not shown). Prophages were induced with mitomycin C. Lytic bacteriophage development was confirmed as an increase in plaque forming units (PFU) and a reduction in colony-forming units (CFU).
(§4) CFU and PFU were determined as follows. To estimate CFU, biofilms were thoroughly scraped (Tetz et al., 2009). Well contents were aspirated, placed in 1 ml of isotonic phosphate buffer (0.15 M, pH 7.2), and the total CFU number was determined by serial dilution and plating on Mueller-Hinton agar. The number of phage virions produced after induction was estimated by phage titration (using strain MG1655 as a host) and phage plaque assay. Following induction, at the indicated times 200-μl samples of biofilms were collected. Then, 30 μl of chloroform was added to each sample, the mixture was vortexed and centrifuged at 3000×g for 5 min in a microcentrifuge (Eppendorf 5415D). A supernatant fraction of the bacterial lysate was further used. The phage titer (number of phages per ml) was determined using the double agar overlay assay method as described previously (Yuan et al., 2012). To this end, 2.5 μl of each titration point of phage lysate was spotted on Mueller-Hinton agar (Oxoid). […]

[3] = tested on: MG1655 wild-type lysogenic strain biofilm; assay: Prophage induction with mitomycin C in E. coli biofilm: CFU numbers; assay type: cell-based, Escherichia coli; conditions: for CFU numbers: prophage induction with 1 μg/ml mitomycin C, 48h biofilm; for CFU: Table 17, prophage induction with mitomycin C, 48-h biofilm
Description: as §1, §2, §3, §4

[4] = 48-h old E. coli biofilms, mitomycin C 1 μg/ml

## O=C(O)C1CSC2=C(C3CC3)C(Cc3cccc4ccccc34)CC(=O)N21 (stereo not drawn) [8-cyclopropyl-7-(1-naphthylmethyl)-5-oxo-2,3,6,7-tetrahydro-5H-[1,3]thiazolo[3,2-a]pyridine-3-carboxylic acid]
[1]
  Median T1D incidence 50% (weeks): 21 weeks

## C[C@H]1c2cccc(O)c2C(=O)C2=C(O)[C@]3(O)C(=O)C(C(N)=O)=C(O)[C@@H](N(C)C)[C@@H]3[C@@H](O)[C@@H]21 [Doxycycline, reference compound]
[1]
  Median T1D incidence 50% (weeks): 25 weeks

## CO[C@@]12[C@H](COC(N)=O)C3=C(C(=O)C(C)=C(N)C3=O)N1C[C@@H]1N[C@@H]12 [Mytomicin C]
E. coli biofilm; wavelength 400 nm
  Congo Red absorbance of biofilm supernatant (release of bacterial amyloid): 0
E. coli biofilm; wavelength 450 nm
  Congo Red absorbance of biofilm supernatant (release of bacterial amyloid): 0.156
E. coli biofilm; wavelength 500 nm
  Congo Red absorbance of biofilm supernatant (release of bacterial amyloid): 0.338
E. coli biofilm; wavelength 541 nm
  Congo Red absorbance of biofilm supernatant (release of bacterial amyloid): 0.421
E. coli biofilm; wavelength 550 nm
  Congo Red absorbance of biofilm supernatant (release of bacterial amyloid): 0.345
E. coli biofilm; wavelength 600 nm
  Congo Red absorbance of biofilm supernatant (release of bacterial amyloid): 0.015
[2]; 4 h
  PFU numbers: 2.3log10 +/− log10 PFU/ml
[2]; 6 h
  PFU numbers: 9.3log10 +/− log10 PFU/ml
[2]; 8 h
  PFU numbers: 10.4log10 +/− log10 PFU/ml
[2]; 10 h
  PFU numbers: 11.2log10 +/− log10 PFU/ml
[3]; 4 h
  CFU numbers: 8.8log10 +/− log10 CFU/ml
[3]; 6 h
  CFU numbers: 8.2log10 +/− log10 CFU/ml
[3]; 8 h
  CFU numbers: 7.6log10 +/− log10 CFU/ml
[3]; 10 h
  CFU numbers: 7.4log10 +/− log10 CFU/ml

## CO[C@@]12[C@H](COC(N)=O)C3=C(C(=O)C(C)=C(N)C3=O)N1C[C@@H]1N[C@@H]12 [mitomycin C, reference compound]
E. coli biofilm; in vitro, mitomycin C 1 μg/ml, 48 h biofilms
  Amyloid release from preformed E. coli biofilms after prophage activation (in words): pronounced amyloid release
[2]; [4]
  Plaque forming units (PFU) after prophage induction (in words): increase
[3]; [4]
  Colony-forming units (CFU) after prophage induction (in words): reduction

## CO[C@@]12[C@H](COC(N)=O)C3=C(C(=O)C(C)=C(N)C3=O)N1C[C@@H]1N[C@@H]12 [mytomicin C]
[2]; 4 h
  PFU: 2.3 log10 PFU/ml
[2]; 6 h
  PFU: 9.3 log10 PFU/ml
[2]; 8 h
  PFU: 10.4 log10 PFU/ml
[2]; 10 h
  PFU: 11.2 log10 PFU/ml
[3]; 4 h
  CFU: 8.8 log10 CFU/ml
[3]; 6 h
  CFU: 8.2 log10 CFU/ml
[3]; 8 h
  CFU: 7.6 log10 CFU/ml
[3]; 10 h
  CFU: 7.4 log10 CFU/ml

## CCCCCCCO[C@H]1O[C@H](CO)[C@@H](O)[C@H](O)[C@@H]1O [n-Heptyl α-D-mannose, reference compound]
[1]
  Median T1D incidence 50% (weeks): 22 weeks

## GGVLVQPG [Larazotide, Glycylglycyl-L-valyl-L-leucyl-L-valyl-L-glutaminyl-L-prolyl-glycine, reference compound]
[1]
  Median T1D incidence 50% (weeks): 24 weeks

## Transthyretin: mouse Transthyretin expressed in E. coli VT-243
[1]
  Median T1D incidence 50% (weeks): 24 weeks
